# Ends that are not written are not given here.
# How the values were obtained:
# [1] = test system: E. coli ATCC 8739-induced septic peritonitis; assay: E. coli-induced septic peritonitis model; type: in vivo, BALB/c mice; conditions: for Mice alive: 18 h after infection
# Experimental: Bacterial strain of E. coli ATCC 8739™ were maintained in our laboratory and used for the mouse sepsis model. The strain was previously stored at −80° C. in a Luria Bertani (LB) broth with 15-20% of glycerol. Single colonies from viable, growing Luria-Bertani (LB) agar plates were transferred to sterile liquid LB medium (containing 10 g tryptone, 10 g NaCl, and 5 g yeast extract per liter) and cultivated aerobically in 50-ml volumes at 37° C. in an orbital shaker for 24 h at 37° C. These cultures were transferred to 500 ml of fresh LB medium for another 12 h. The optical density (OD) of the suspension was adjusted to 0.3 (exponential phase) using a spectrophotometer. Such OD corresponds to*10^8 colony-forming units (CFU)/mL. When bacteria were in the log phase of growth, the suspension was harvested by centrifugation at 1500×g for 5 min at 4° C.; the supernatant was discarded and washed and resuspended three times in phosphate-buffered saline (PBS) at pH 7.4 and mixed by vortexing to achieve a concentration of approximately 1×10^8 colony-formation units (CFU) per milliliter. Finally, the bacterial suspensions were incubated in a water bath at 100° C. for 30 min to inactivate the cells. One hundred microliters of the suspension were serially diluted with sterile saline solution, plated on sheep blood agar plates, and incubated for 18 hours for determination of the bacterial concentration. The rest of the culture suspension was stored at 4° C. until use. Just before the intraperitoneal injection, the bacterial suspension was adjusted to a concentration of 1×10^8 colony forming units (CFU) per 0.1 mL with normal saline solution/PBS.
# This study was carried out within an animal containment BSL2 facility. The animals were infected with suspensions containing […] E. coli 8739™ (200 μL) inoculated intraperitoneally. The day of challenge was designated as day 1 of the experiment and considers it as 0 hr. [Wendy E. Walker, 2021; Komal Dolasia et al., 2018]
# Mice received an intraperitoneal injection of E. coli ATCC 8739, 5.0×10^8 CFU per mouse in 200 μL to induce septic peritonitis as mentioned above. After 2 h of the E. coli infection, mice (n=6) were treated intravenously with two test doses of IS 111 (0.6 mg/kg & 1.2 mg/kg) in treatment groups. Control animals received 200 μL of normal saline. […] The figure was adopted and modified according to the present study. [Henrique G et al., 2020].
# In all the animal experiments, IS 111 were administered by intravenous injections respectively; According to the clinical dosage regimen, IS 111 was repeatedly administered at 2 h after the intraperitoneal injection of heat-killed E. coli. The survival of mice was monitored for up to 5 days. In each group the half of the animals were killed after 18 hours. And in other subset of the animals, IS 111 at two doses 0.6 & 1.2 mg/kg were injected IV daily for 3 days following infection. The survival of mice was monitored for up to 18 h and the other half of the animals are continued for the survival monitored up to 5 days.
# In the survival study, survival rates were determined over a period of 5 d with assessment every 12 h, by setting the day 0 from 0 to 18 h after surgery and continuing observation until […]. In each group the half of the animals were killed after 18 hours, in another half subset of animals was followed for 5 days for survival assessment after sepsis induction to verify mortality rates. IS 111 at two doses 0.6 & 1.2 mg/kg were injected IV daily 24 h for 3 days following the E. coli Infection.
# The physical activity of the mice was recorded independently by two independent observers who were blinded to treatment before sampling as previously described. In this study predetermined grading system was used with a scale of 1 (healthy) to 5 (agony). […]
# in vitro = type: cell-based, murine; conditions: mouse
# Experimental: Cell viability of synthetic peptides on the growth of RAW264.7 cells was measured using the methyl thiazolyl tetrazolium (MTT) assay after 48 h. Briefly, exponentially growing macrophages RAW264.7 cells were mechanically scraped, plated at a density of 7×10^3 cells in 100 μl were seeded into each well of a 96-well plate then incubated for 12 h at 37° C. under 5% CO2, and then the cells are treated with test peptides: IS 111 ([…]) or dexamethasone ([…]) cells were incubated at 37° C. in the presence of 5% CO2 for 42 h. After incubation, the morphology of cells was examined under a microscope. Following incubation, MTT was added to the cells (20 μL at 5 mg/mL MTT dissolved in 1×PBS) and incubated for 4 hours in the presence of 5% CO2 at 37° C. Formazan crystals were dissolved by the addition of 100 μL of 100% DMSO per well. Plates were then gently swirled for 5 min at room temperature to dissolve the precipitate. Absorbance was monitored at 575 nm using a microplate reader. Maximum cytotoxicity (100%) was determined by cells incubated with 1% Triton X-100; PBS was used as a negative control. Cells without treatment were considered as control. The average absorbance for each sample group was used to evaluate cell viability.
# Optical density (O.D.) was calculated as the difference between the absorbance at the reference wavelength and that at the test wavelength. The relative cell viability was determined by the amount of MTT converted to the insoluble formazan salt. The data were expressed as the mean percentage of viable cells when compared with untreated cells (control). The half maximal growth inhibitory concentration (IC50) value was calculated from the line equation of the dose-dependent curve of each compound. The results were compared with the cytotoxic activity of dexamethasone, a known anti-inflammatory drug. […] Percentages of cell viability and LC50 of cells were calculated: Percent cell viability was calculated as (O.D. of drug-treated sample/control O.D.)×100. The data were expressed as percent cell viability compared with control (dimethyl sulfoxide/NS). The experiment was carried out in four samples of each concentration.
# The percentages of cell viability and LC50 of cells were calculated by using the formula below.
# Where Absorbance control is the DMSO 0.1%-treated cell absorbance, and Absorbance sample is the test sample-treated cell absorbance. LC50 values were derived from dose-response curves, and data were expressed as the mean of three independent experiments. Statistical analyses involved Student's t-test and one-way ANOVA.
# The test peptide IS 111 cytotoxic effects on RAW 264.7 mouse […] were determined by MTT assay. […] Cell viability was measured by MTT assay based on the conversion of yellow tetrazolium salt to form a purple formazan product. The viability of the RAW 264.7 cells can be seen on table 21.
# [2] = 0.6 mg/kg IV, 18 hr after induction of septic shock
# [3] = 18 h, comparable to control mice
# [4] = serum 18 h, therapeutic administration
substance,measurement,setting,value
"FAKKFAK [IS 111, Phe-Ala-Lys-Lys-Phe-Ala-Lys]",Lung and liver injuries (histopathology),"[1]; 0.6 mg/kg IV, 18 h",reduces the injuries to moderate extent
same,Activity upon stimulation,[1]; [2],Sluggish activity. Animals
same,Conjunctivitis,[1]; [2],Mild (Usually serous
same,Hair coat,[1]; [2],Moderately ruffled coats
same,Mice alive,[1]; 0.6 mg/kg,50%
same,Lymphocyte numbers,[1]; [3],restored
same,WBC numbers,[1]; [3],restored
same,Neutrophil numbers,"[1]; 18 h, vs septic mice",marginally higher
same,Mice alive,[1]; […],80%
same,Survival,"[1]; after 7 days of infection, IS 111 treatment groups",80%
same,IL-1b level,[1]; [4],significantly reduce
same,IL-6 level,[1]; [4],significantly reduce
same,IL-12 p70 level,[1]; [4],significantly reduce
same,TNF-α level,[1]; [4],significantly reduce
same,Reduction of mortality,[1]; vs diseased control animals (normal saline),80%
same,"viability at 48 h, 1.5625 μg/mL",in vitro,84.5%
same,"viability at 48 h, 3.125 μg/mL",in vitro,91.5%
same,"viability at 48 h, 6.25 μg/mL",in vitro,90.2%
same,"viability at 48 h, 12.5 μg/mL",in vitro,99.7%
same,"viability at 48 h, 25 μg/mL",in vitro,96.4%
same,"viability at 48 h, 50 μg/mL",in vitro,95%
same,"viability at 48 h, 100 μg/mL",in vitro,91.4%

# Source: US20260226101A1, “PEPTIDE WITH ANTI-INFLAMMATORY AND ANTI-MICROBIAL ACTIVITY” (priority 2023, published 2026)
